Reference: patent publication US10167262B2, “Herbicidal substituted 3-arylpyrazoles” (FMC CORPORATION, priority 2014, dated 2019)
Where two headings read alike, the source gives them in different places.

What was measured:
Format in all cases: in vivo
[1] = system: yellow nutsedge (Cyperus esculentus); test: Test C pre-/postemergence greenhouse test, plant response rating 0-100; details: Cyperus; for pest or weed control at 250 g/ha: 250 g ai/ha; for pest or weed control at 500 g/ha: 500 g ai/ha
Description: (§1) Seeds of plant species selected from blackgrass (Alopecurus myosuroides), Italian ryegrass (Lolium multiflorum), winter wheat (Triticum aestivum), galium (catchweed bedstraw, Galium aparine), corn (Zea mays), large (Lg) crabgrass (Digitaria sanguinalis), giant foxtail (Setaria faberii), johnsongrass (Sorghum halepense), lambsquarters (Chenopodium album), morningglory (Ipomoea coccinea), yellow nutsedge (Cyperus esculentus), pigweed (Amaranthus retroflexus), ragweed (common ragweed, Ambrosia elatior), soybean (Glycine max), barnyardgrass (Echinochloa crus-galli), oilseed rape (Brassica napus), waterhemp (common waterhemp, Amaranthus rudis), and velvetleaf (Abutilon theophrasti) were planted into a blend of loam soil and sand and treated preemergence with test chemicals formulated in a non-phytotoxic solvent mixture which included a surfactant.
(§2) At the same time, plants selected from these crop and weed species and also winter barley (Hordeum vulgare), bermudagrass (Cynodon dactylon), downy bromegrass (Bromus tectorum), canarygrass (Phalaris minor), cocklebur (common cocklebur, Xanthium strumarium), woolly cupgrass (Eriochloa villosa), deadnettle (henbit deadnettle, Lamium amplexicaule), green foxtail (Setaria viridis), goosegrass (Eleusine indica), surinam grass (Brachiaria decumbens), windgrass (Apera spica-venti), chickweed (common chickweed, Stellaria media), kochia (Kochia scoparia), and wild oat (Avena fatua), were planted in pots containing Redi-Earth® planting medium (Scotts Company, 14111 Scottslawn Road, Marysville, Ohio 43041) comprising spaghnum peat moss, vermiculite, wetting agent and starter nutrients and treated with postemergence applications of test chemicals formulated in the same manner. Plants ranged in height from 2 to 18 cm (1- to 4-leaf stage) for postemergence treatments. Treated plants and controls were maintained in a greenhouse for 13 to 15 days, after which time all species were compared to controls and visually evaluated. Plant response ratings, summarized in Table C, are based on a scale of 0 to 100 where 0 is no effect and 100 is complete control. A dash (-) response means no test result.

[2] = system: winter wheat (Triticum aestivum); test: as above; details: Triticum aestivum; for plant injury at 62 g/ha: 62 g ai/ha; for plant injury at 125 g/ha: 125 g ai/ha; for plant injury at 250 g/ha: 250 g ai/ha; for plant injury at 500 g/ha: 500 g ai/ha
Description: as §1, §2

[3] = system: blackgrass (Alopecurus myosuroides); test: as above; details: Alopecurus myosuroides; for pest or weed control at 62 g/ha: 62 g ai/ha; for pest or weed control at 125 g/ha: 125 g ai/ha; for pest or weed control at 250 g/ha: 250 g ai/ha; for pest or weed control at 500 g/ha: 500 g ai/ha
Description: as §1, §2

[4] = system: ragweed (common ragweed, Ambrosia elatior); test: as above; details: Ambrosia artemisiifolia; for pest or weed control at 62 g/ha: 62 g ai/ha; for pest or weed control at 125 g/ha: 125 g ai/ha; for pest or weed control at 250 g/ha: 250 g ai/ha; for pest or weed control at 500 g/ha: 500 g ai/ha
Description: as §1, §2

soybean (Glycine max) = test: as above; details: Glycine max; for plant injury at 62 g/ha: 62 g ai/ha; for plant injury at 125 g/ha: 125 g ai/ha; for plant injury at 250 g/ha: 250 g ai/ha; for plant injury at 500 g/ha: 500 g ai/ha
Description: as §1, §2

kochia (Kochia scoparia) = test: Test C postemergence greenhouse test, plant response rating 0-100; details: Bassia scoparia, post-emergence
Procedure, shortened: (§3)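 Postemergence spray of formulated test chemicals on plants 2 to 18 cm tall (1- to 4-leaf stage) grown in peat/vermiculite medium. Greenhouse hold 13 to 15 days, then visual comparison with untreated controls on a 0-100 scale (0 no effect, 100 complete control); dash means no test result.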

wild oat (Avena fatua) = test: as above; details: Avena fatua, post-emergence
Procedure, shortened: as §3

[5] = system: chickweed (common chickweed, Stellaria media); test: as above; details: Stellaria media, post-emergence
Procedure, shortened: as §3

[6] = post-emergence, Postemergence, scale 0 to 100
[7] = post-emergence, Postemergence, read-out: Plant response rating (0 to 100), Wheat
[8] = pre-emergence, Preemergence, read-out: Plant response rating, Wheat
[9] = pre-emergence, Preemergence, read-out: Plant response rating, Blackgrass
[10] = post-emergence, Postemergence, read-out: Plant response rating (0 to 100), Ragweed
[11] = pre-emergence, Preemergence, read-out: Plant response rating, Ragweed
[12] = post-emergence, Postemergence, read-out: Plant response rating (0 to 100), Soybean
[13] = pre-emergence, Preemergence, read-out: Plant response rating, Soybean

CCOC(OCC)(c1ccccc1)c1c[nH]nc1-c1cc(Cl)cc(Cl)c1 [Compound 14, 3-(3,5-dichlorophenyl)-4-(diethoxyphenylmethyl)-1H-pyrazole]
pest or weed control at 250 g/ha [1, 6]: 0%
pest or weed control at 500 g/ha [1, 6]: 0%
pest or weed control at 62 g/ha ([1]; pre-emergence, Preemergence, 62 g ai/ha, read-out: Plant response rating, Nutsedge, Yellow): 0%
pest or weed control at 125 g/ha ([1]; pre-emergence, Preemergence, 125 g ai/ha, read-out: Plant response rating, Nutsedge, Yellow): 0%
pest or weed control at 250 g/ha ([1]; pre-emergence, Preemergence): 0%
pest or weed control at 500 g/ha ([1]; pre-emergence, Preemergence): 0%
plant injury at 62 g/ha [2, 7]: 0%
plant injury at 125 g/ha [2, 7]: 0%
plant injury at 250 g/ha [2, 6]: 0%
plant injury at 500 g/ha [2, 6]: 5%
plant injury at 62 g/ha [2, 8]: 0%
plant injury at 125 g/ha [2, 8]: 0%
plant injury at 250 g/ha ([2]; pre-emergence, Preemergence): 0%
plant injury at 500 g/ha ([2]; pre-emergence, Preemergence): 0%
pest or weed control at 62 g/ha ([3]; post-emergence, Postemergence, read-out: Plant response rating (0 to 100), Blackgrass): 0%
pest or weed control at 125 g/ha ([3]; post-emergence, Postemergence, scale 0 to 100, read-out: Plant response rating, Blackgrass): 0%
pest or weed control at 250 g/ha [3, 6]: 0%
pest or weed control at 500 g/ha [3, 6]: 0%
pest or weed control at 62 g/ha [3, 9]: 50%
pest or weed control at 125 g/ha [3, 9]: 20%
pest or weed control at 250 g/ha ([3]; pre-emergence, Preemergence): 0%
pest or weed control at 500 g/ha ([3]; pre-emergence, Preemergence): 30%
pest or weed control at 62 g/ha [4, 10]: 60%
pest or weed control at 125 g/ha [4, 10]: 70%
pest or weed control at 250 g/ha [4, 6]: 75%
pest or weed control at 500 g/ha [4, 6]: 80%
pest or weed control at 62 g/ha [4, 11]: 75%
pest or weed control at 125 g/ha [4, 11]: 100%
pest or weed control at 250 g/ha ([4]; pre-emergence, Preemergence): 100%
pest or weed control at 500 g/ha ([4]; pre-emergence, Preemergence): 100%
plant injury at 62 g/ha (soybean (Glycine max); [12]): 0%
plant injury at 125 g/ha (soybean (Glycine max); [12]): 0%
plant injury at 250 g/ha (soybean (Glycine max); [6]): 0%
plant injury at 500 g/ha (soybean (Glycine max); [6]): 0%
plant injury at 62 g/ha (soybean (Glycine max); [13]): 0%
plant injury at 125 g/ha (soybean (Glycine max); [13]): 35%
plant injury at 250 g/ha (soybean (Glycine max); pre-emergence, Preemergence): 40%
plant injury at 500 g/ha (soybean (Glycine max); pre-emergence, Preemergence): 10%
pest or weed control at 62 g/ha (kochia (Kochia scoparia); 62 g ai/ha): 85%
pest or weed control at 125 g/ha (kochia (Kochia scoparia); 125 g ai/ha): 90%
pest or weed control at 250 g/ha (kochia (Kochia scoparia); 250 g ai/ha, scale 0 to 100): 90%
pest or weed control at 500 g/ha (kochia (Kochia scoparia); 500 g ai/ha, scale 0 to 100): 90%
pest or weed control at 62 g/ha (wild oat (Avena fatua); 62 g ai/ha): 0%
pest or weed control at 125 g/ha (wild oat (Avena fatua); 125 g ai/ha): 0%
pest or weed control at 250 g/ha (wild oat (Avena fatua); 250 g ai/ha, scale 0 to 100): 0%
pest or weed control at 500 g/ha (wild oat (Avena fatua); 500 g ai/ha, scale 0 to 100): 5%
pest or weed control at 62 g/ha ([5]; 62 g ai/ha): 90%
pest or weed control at 125 g/ha ([5]; 125 g ai/ha): 100%
pest or weed control at 250 g/ha ([5]; 250 g ai/ha, scale 0 to 100): 100%
pest or weed control at 500 g/ha ([5]; 500 g ai/ha, scale 0 to 100): 95%
